Data published in patent publication US20250134867A1, “METHOD FOR MODULATING LIPID METABOLISM, AMELIORATING NON-ALCOHOLIC FATTY LIVER DISEASE AND METABOLIC SYNDROME BY USING 6-METHOXYBENZOXAZOLINONE” (Taichung District Agricultural Research and Extension …, priority 2023, published 2025).

What was measured:
Format in all cases: cell-based, human
[1] = system: acetyl-CoA carboxylase (ACC1); assay: Western blot analysis, ACC1 phosphorylation in OA-induced HuS-E/2 cells; details: CX at 50-400 μM, 0.1 mM OA-induced HuS-E/2 cells
Description: (§1) The procedure regarding Western blot analysis is as follows. For western blot analysis, an equal amount of protein from each sample was resolved by sodium dodecyl sulfate polyacrylamide gel electrophoresis (SDS-PAGE) and then transferred to polyvinylidene fluoride (PVDF) membranes. Primary antibodies against AMPK (Cat. GTX103487), adipose triglyceride lipase (ATGL) (Cat. GTX109941), carnitine palmitoyl-transferase 1 (CPT1) (Cat. GTX114337), and β-actin (Cat. GTX109639) were from GeneTex (Taiwan), and those against pAMPK (Cat. AP0432), phospho acetyl-CoA carboxylase (pACC) (Cat. AP0298), ACC (Cat. A15606), and fatty acid synthase (FAS) (Cat. A21182) was from ABclonal (China). Horseradish peroxidase (HRP)-conjugated secondary antibodies were from Jackson ImmunoResearch Laboratories, Inc., USA. WesternBright® ECL kits (Advansta Inc., USA) were used for protein visualization. Levels of protein expression were quantified by densitometric analyses.

[2] = system: OA-induced HuS-E/2 cells; assay: Oil Red O staining of lipid accumulation in oleic acid (OA)-induced cells; details: 0.1 mM OA, 18 h
Method: To evaluate the effect of CX on lipid accumulation, HuS-E/2 cells were incubated with or without 0.1 mM OA (Cat. O1383) in the presence or absence of CX for 18 hours. The OA stock solution was 3.15 M in DMSO, and stored at −20° C.
The procedure regarding oil red O staining is as follows. Oil Red O stain (Cat. O0625) were from Sigma-Aldrich, USA. The Oil Red O stain stock solution was 3 mg/mL in isopropanol, and stored at room temperature. For microscopic observation, cells were fixed in 4% paraformaldehyde in phosphate-buffered saline (PBS) for 30 min at room temperature, stained with Oil Red O stain working solution (60% Oil Red O stock solution and 40% distilled water) for 1 h at room temperature, and then rinsed with water. Micrographs were captured under a microscope. For quantitative analysis of cellular lipids, cells were washed three times with ice-cold PBS, fixed with 10% formalin for 1 h, washed, stained with Oil Red O solution for 1 h at room temperature, and washed with water to remove excess dye. Cell-bound Oil Red O stain was dissolved in isopropanol at room temperature for 5 min with shaking. The absorbance at 510 nm was measured in a spectrophotometer. The relative lipid content is calculated by setting the readouts of those receiving vehicles to 0% and those receiving free fatty acids alone to 100%.

[3] = system: adipose triglyceride lipase (ATGL); assay: Western blot analysis, ATGL expression in OA-induced HuS-E/2 cells; details: CX at 50-400 μM, 0.1 mM OA-induced HuS-E/2 cells
Description: as §1

[4] = system: adenosine 5′-monophosphate-activated protein kinase (AMPK); assay: Western blot analysis, AMPK phosphorylation in OA-induced HuS-E/2 cells; details: CX at 100-400 μM, 0.1 mM OA-induced HuS-E/2 cells
Description: as §1

[5] = system: fatty acid synthase (FAS); assay: Western blot analysis, FAS expression in OA-induced HuS-E/2 cells; details: CX at 100-400 μM, 0.1 mM OA-induced HuS-E/2 cells
Description: as §1

[6] = system: HuS-E/2 cells; assay: MTT cell viability / cytotoxicity assay; details: 24 h
Method: To determine the cytotoxicity of CX, HuS-E/2 cells were incubated with CX at the concentrations indicated for 24 hours. The CX stock solution was 200 mM in dimethyl sulfoxide (DMSO; Cat. 15578544, J. T. Baker, USA), and stored at −20° C.
The procedure regarding cell culture of immortalized primary human hepatocytes HuS-E/2 cells is as follows. HuS-E/2 cell line, kindly provided by Dr. Shimotohno (Kyoto University, Japan), were maintained in primary hepatocyte medium (PH medium), containing 20 mM HEPES, 10% fetal bovine serum, 15 μg/mL L-proline, 0.25 μg/mL insulin, 50 nM dexamethasone, 44 mM NaHCO3, 10 mM nicotinamide, 5 ng/ml EGF, 0.1 mM Asc-2P, 100 IU/mL penicillin, 100 μg/mL streptomycin, 10 μg/mL gentamicin, and 1 μg/mL plasmocin in high-glucose Dulbeco's modified Eagle medium (DMEM). Cells were incubated at 37° C. in an incubator supplied with 5% CO2.
3-(4,5-dimethylthiazol-2-yl)-2,5-diphenyltetrazolium bromide (MTT) (Cat. M5655) (Sigma-Aldrich, USA) stock solution was 5 mg/mL in 1×phosphate-buffered saline (PBS), and stored at −20° C.
The procedure regarding cell viability is as follows. HuS-E/2 cells were seeded at 4.5×10^4 cells/well in a 96-well plate and were incubated with 0-1600 μM CX for 24 h. MTT was added to each well to a final concentration of […] and was incubated at 37° C. for an hour before removal. MTT-formazan crystals formed by metabolically viable cells were dissolved in 200 μL of DMSO for absorbance detection at 550 nm using a SPARK® Multimode microplate reader from TECAN, Switzerland. The 50% cytotoxic concentration (CC50) was calculated using the normalized response (variable slope) model given in GraphPad Prism 7.03 (USA).

[7] = system: carnitine palmitoyl-transferase 1 (CPT1); assay: Western blot analysis, CPT1 expression in OA-induced HuS-E/2 cells; details: CX at 50-400 μM, 0.1 mM OA-induced HuS-E/2 cells
Description: as §1

Q: With `COc1ccc2[nH]c(=O)oc2c1` [CX, 6-methoxybenzoxazolinone] as the compound, how does the ACC1 phosphorylation [1] read?
A: increasing ACC1 phosphorylation

Q: What about the “lipid accumulation (micrographs, Oil Red O)” value ([2]; FIG. 2A) of the same compound?
A: reduced lipid accumulation in a dose-dependent manner

Q: What about the “lipid content (Oil Red O, absorbance 510 nm)” value ([2]; FIG. 2B) of the same compound?
A: diminished the lipid content

Q: What about the ATGL expression [3] of the same compound?
A: increased ATGL expression substantially

Q: What about the AMPK phosphorylation [4] of the same compound?
A: marked increase

Q: What about the FAS expression [5] of the same compound?
A: downregulated FAS expression

Q: What about the “effect on the viability of HuS-E/2 cells” value ([6]; CX at 25-400 μM, MTT) of the same compound?
A: no significant effect

Q: What about the “cytotoxicity in HuS-E/2 cells” value ([6]; CX at up to 400 μM) of the same compound?
A: did not inflict cytotoxicity

Q: And the CC50 ([6]; HuS-E/2 cells, MTT, n=3, mean±SEM, read-out: CC50 (50% cytotoxic concentration))?
A: 1430 ± 170 µM

Q: What about the CPT1 levels [7] of the same compound?
A: elevated CPT1 levels
